# Source: US20210238225A1, “PEPTIDOMIMETIC INHIBITORS OF THE PEPTIDYL-PROLYL CIS/TRANS ISOMERASE (PIN1)” (DANA-FARBER CANCER INSTITUTE, INC., priority 2018, published 2021)
# “Also recorded” adds a separate entry of the source. Where two headings read alike, the source gives them in different places. Non-standard residues stand in square brackets, D forms with d. Residues, ends and D or L forms follow the SMILES beside them. *: point of attachment. Biotinyl(3aR,4R,6aS) = O=C1N[C@@H]2[C@@H](CS[C@@H]2CCCCC(=O)*)N1; X2 = C[C@H]1NC(=O)N[C@H]1CCCCCC(=O)*; NH(4-Me-benzyl) = Cc1ccc(CN*)cc1; NMeF = CN[C@@H](Cc1ccccc1)C(=O)O; Cit = NC(=O)NCCC[C@H](N)C(=O)O; Pip = O=C(O)[C@@H]1CCCCN1; Piperidide = C1CCN(*)CC1; Fluoroacetyl = O=C(CF)*; X3 = C=CS(=O)(=O)*; ClAc = O=C(CCl)*; X1 = O=C(C1CO1)*
# Legend:
# [1] = target: Pin1 (Homo sapiens, UniProt Q13526); test: Lysate target engagement (pull down with biotinylated probes; competition assay); type: binding; set-up: endogenous in cells; host or cells: MDA-MB-231; conditions: for Lysate Target Engagement?: TNBC-MDA-MB-231 lysate, biotin/dtb probes: pull down, others: competition, concentration under E5; for Lysate Target Engagement? concentration stated for the engagement or pull down: read with the E4 line of the same compound (complete, partial, probe pull down); for pull down of Pin1 from lysate (FIG. 5A): 1 μM
# Description: (§1) TNBC-MDA-MB-231 cells were lysed in lysis buffer (50 mM Hepes pH 7.5, 150 mM NaCl, 1 mM ethylenediaminetetraacetic acid (EDTA), 10% v/v glycerol, 0.5% v/v NP-40, protease inhibitors (Roche)). After clarifying by centrifugation (14,000 rpm for 15 min at 4° C.), lysates were incubated with the indicated concentrations of candidate compound for 1 hour at 4° C. (500 μg of protein per sample, as determined by BCA). Lysates were then incubated with streptavidin agarose resin (30 μL of 1:1 beads: lysis buffer slurry) (Thermo Scientific™, cat. #20349) for 2 hours at 4° C. Beads were washed 4 times with 500 μL of washing buffer (50 mM Hepes, pH 7.5, 10 mM NaCl, 1 mM EDTA, 10% glycerol), then pelleted by centrifugation and dried. The beads were then boiled at 95° C. for 5 minutes in 30 μL of 2× LDS+10% β-mercaptoethanol. Lysates were probed for specified proteins by western blotting using the Bolt system (Life Technologies™).
# as §1, with “mM EDTA,” for “mM ethylenediaminetetraacetic acid (EDTA),”, “by centrifugation,” for “by centrifugation (14,000 rpm for 15 min at 4° C.),”, “were pre-incubated” for “were incubated”, “of” for “of candidate”, “compound 18 overnight” for “compound for 1 hour”, “BCA). The lysates were then incubated with 1 μM of compound 2c (desthiobiotin probe) for 1 hour at 4° C.” for “BCA).”
# [2] = target: Pin1 (GST-Pin1) (Homo sapiens, UniProt Q13526); test: Fluorescence polarization (FP) assay, binding to Pin1
# [3] = competition with fluorescein-labeled peptide probe, 12 hours pre-incubation at 4° C., Kenakin Ki equation, read-out: Ki, μM (FP Assay)
# [4] = Ki quoted in figure legend, assay not named
# [5] = Ki, μM (FP Assay), competition with fluorescein-labeled peptide probe, 12 hours pre-incubation at 4° C., Kenakin Ki equation
# Pin1, sequence (Q13526 whole entry): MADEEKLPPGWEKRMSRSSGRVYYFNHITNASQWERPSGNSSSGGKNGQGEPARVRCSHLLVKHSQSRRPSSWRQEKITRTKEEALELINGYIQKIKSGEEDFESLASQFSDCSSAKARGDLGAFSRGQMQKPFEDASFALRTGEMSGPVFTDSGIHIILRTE
# Pin1 (GST-Pin1), sequence (Q13526 whole entry): as above
SMILES,Lysate Target Engagement? [1],Lysate Target Engagement? concentration stated for the engagement or pull down [1],"Ki [2, 3] [µM]",other results
"COC(=O)CC[C@H](NC(=O)CCl)C(=O)N1CCCC[C@H]1C(=O)N[C@@H](Cc1c[nH]c2ccccc12)C(=O)N[C@@H](Cc1ccc(O)cc1)C(N)=O [Compound 2-22, Methyl (S)-5-((S)-2-(((S)-1-(((S)-1-Amino-3-(4-hydroxyphenyl)-1-oxopropan-2-yl)amino)-3-(1H-indol-3-yl)-1-oxopropan-2-yl)carbamoyl)piperidin-1-yl)-4-(2-chloroacetamido)-5-oxopentanoate] (ClAc-E(OMe)[Pip]WY-NH2)",Yes-partial,at 10 μM,0.154,
"C[C@H](NC(=O)[C@H](C)NC(=O)[C@H](CCCNC(N)=O)NC(=O)[C@H](Cc1c[nH]c2ccccc12)NC(=O)[C@@H]1CCCCN1C(=O)[C@H](CCC(=O)O)NC(=O)CCl)C(=O)N[C@@H](CCCCNC(=O)CCCC[C@H]1SC[C@H]2NC(=O)N[C@H]21)C(N)=O [Compound 2-25, (S)-5-((S)-2-(((2S,5S,8S,11S)-14-Carbamoyl-1-(1H-indol-3-yl)-8,11-dimethyl-3,6,9,12,20-pentaoxo-24-((3aR,4R,6aS)-2-oxohexahydro-1H-thieno[3,4-d]imidazol-4-yl)-5-(3-ureidopropyl)-4,7,10,13,19-pentaazatetracosan-2-yl)carbamoyl)piperidin-1-yl)-4-(2-chloroacetamido)-5-oxopentanoic acid] (ClAc-E[Pip]W[Cit]AAK(Biotinyl(3aR,4R,6aS))-NH2)",Yes-(Biotin,at 1 μM,,"pull down of Pin1 from lysate (FIG. 5A) ([1]; TNBC MDA-MB-231 lysate): able to pull down Pin1; also recorded: pulled down Pin1; Ki ([2]; read-out: Ki quoted in figure legend, assay not named): 0.02 µM"
"C[C@H](NC(=O)[C@H](C)NC(=O)[C@H](CCCNC(N)=O)NC(=O)[C@H](Cc1c[nH]c2ccccc12)NC(=O)[C@@H]1CCCCN1C(=O)[C@@H](CCC(=O)O)NC(=O)CCl)C(=O)N[C@@H](CCCCNC(=O)CCCC[C@H]1SC[C@H]2NC(=O)N[C@H]21)C(N)=O [Compound 2-30, (R)-5-((S)-2-(((2S,5S,8S,11S)-14-Carbamoyl-1-(1H-indol-3-yl)-8,11-dimethyl-3,6,9,12,20-pentaoxo-24-((3aR,4R,6aS)-2-oxohexahydro-1H-thieno[3,4-d]imidazol-4-yl)-5-(3-ureidopropyl)-4,7,10,13,19-pentaazatetracosan-2-yl)carbamoyl)piperidin-1-yl)-4-(2-chloroacetamido)-5-oxopentanoic acid] (ClAc-[dE][Pip]W[Cit]AAK(Biotinyl(3aR,4R,6aS))-NH2)",,,1.6,pull down of Pin1 from lysate (FIG. 5A) ([1]; TNBC MDA-MB-231 lysate): unable to pull down Pin1; also recorded: did not
"CN(C(=O)CCl)[C@@H](Cc1ccccc1)C(=O)N1CCCC[C@H]1C(=O)N[C@@H](Cc1c[nH]c2ccccc12)C(=O)N[C@@H](CCCNC(N)=O)C(=O)N[C@@H](CCCCNC(=O)CCCC[C@H]1SC[C@H]2NC(=O)N[C@H]21)C(N)=O [Compound 2-32, (S)—N—((S)-1-(((S)-1-(((S)-1-Amino-1-oxo-6-(5-((3aR,4R,6aS)-2-oxohexahydro-1H-thieno[3,4-d]imidazol-4-yl)pentanamido)hexan-2-yl)amino)-1-oxo-5-ureidopentan-2-yl)amino)-3-(1H-indol-3-yl)-1-oxopropan-2-yl)-1-(N-(2-chloroacetyl)-N-methyl-L-phenylalanyl)piperidine-2-carboxamide] (ClAc-[NMeF][Pip]W[Cit]K(Biotinyl(3aR,4R,6aS))-NH2)",Yes-(Biotin,at 0.5 μM,,"pull down of Pin1 from lysate (FIG. 5B) ([1]; TNBC MDA-MB-231 lysate, 500 nM and 1 μM): able to pull down Pin1; also recorded: pulled down Pin1; Ki [2, 4]: 0.018 µM; Ki [2, 5]: 0.018 µM"
"C[C@H]1NC(=O)N[C@H]1CCCCCC(=O)NCCCC[C@H](NC(=O)[C@H](CCCNC(N)=O)NC(=O)[C@H](Cc1c[nH]c2ccccc12)NC(=O)[C@@H]1CCCCN1C(=O)[C@H](Cc1ccccc1)N(C)C(=O)CCl)C(N)=O [Compound 2c, (S)—N—((S)-1-(((S)-1-(((S)-1-Amino-6-(6-((4S,5R)-5-methyl-2-oxoimidazolidin-4-yl)hexanamido)-1-oxohexan-2-yl)amino)-1-oxo-5-ureidopentan-2-yl)amino)-3-(1H-indol-3-yl)-1-oxopropan-2-yl)-1-(N-(2-chloroacetyl)-N-methyl-L-phenylalanyl)-piperidine-2-carboxamide] (ClAc-[NMeF][Pip]W[Cit]K(X2)-NH2)",Yes-(dtb,at 0.5 μM,,"Ki [2, 4]: 0.015 µM"
"CN(C(=O)CCl)[C@@H](Cc1ccccc1)C(=O)N1CCCC[C@H]1C(=O)N[C@@H](Cc1c[nH]c2ccccc12)C(=O)N1CCCCC1 [Compound 11-45, (S)—N—((S)-3-(1H-indol-3-yl)-1-oxo-1-(piperidin-1-yl)propan-2-yl)-1-(N-(2-chloroacetyl)-N-methyl-L-phenylalanyl)piperidine-2-carboxamide] (ClAc-[NMeF]-[Pip]-Trp-Piperidide)",,,> 1,
"Cc1ccc(CNC(=O)[C@H](CCCNC(N)=O)NC(=O)[C@H](Cc2c[nH]c3ccccc23)NC(=O)[C@@H]2CCCCN2C(=O)[C@H](Cc2ccccc2)NCC#N)cc1 [Compound 12, (S)—N—((S)-3-(1H-indol-3-yl)-1-(((S)-1-((4-methylbenzyl)amino)-1-oxo-5-ureidopentan-2-yl)amino)-1-oxopropan-2-yl)-1-((cyanomethyl)-L-phenylalanyl)piperidine-2-carboxamide]",,,> 10,
"Cc1ccc(CNC(=O)[C@H](CCCNC(N)=O)NC(=O)[C@H](Cc2c[nH]c3ccccc23)NC(=O)[C@@H]2CCCCN2C(=O)[C@H](Cc2ccccc2)NC(=O)C2CO2)cc1 (stereo partly drawn) [Compound 13, (2S)—N—((S)-3-(1H-Indol-3-yl)-1-(((S)-1-((4-methylbenzyl)amino)-1-oxo-5-ureidopentan-2-yl)amino)-1-oxopropan-2-yl)-1-((oxirane-2-carbonyl)-L-phenylalanyl)piperidine-2-carboxamide] (X1-F[Pip]W[Cit]-{NH(4-Me-benzyl)})",,,4.43,
"C=CS(=O)(=O)N[C@@H](Cc1ccccc1)C(=O)N1CCCC[C@H]1C(=O)N[C@@H](Cc1c[nH]c2ccccc12)C(=O)N[C@@H](CCCNC(N)=O)C(=O)NCc1ccc(C)cc1 [Compound 14, (S)—N—((S)-3-(1H-indol-3-yl)-1-(((S)-1-((4-methylbenzyl)amino)-1-oxo-5-ureidopentan-2-yl)amino)-1-oxopropan-2-yl)-1-((vinylsulfonyl)-L-phenylalanyl)piperidine-2-carboxamide] (X3-F[Pip]W[Cit]-{NH(4-Me-benzyl)})",,,0.143,
"Cc1ccc(CNC(=O)[C@H](CCCNC(N)=O)NC(=O)[C@H](Cc2c[nH]c3ccccc23)NC(=O)[C@@H]2CCCCN2C(=O)[C@H](Cc2ccccc2)NC(=O)CF)cc1 [Compound 15, (S)—N—((S)-3-(1H-Indol-3-yl)-1-(((S)-1-((4-methylbenzyl)amino)-1-oxo-5-ureidopentan-2-yl)amino)-1-oxopropan-2-yl)-1-((2-fluoroacetyl)-L-phenylalanyl)piperidine-2-carboxamide] (Fluoroacetyl-F[Pip]W[Cit]-{NH(4-Me-benzyl)})",,,,"Ki [2, 5]: > 10 µM"
